Entries after “also recorded” stand apart in the source; their conditions may differ. Blank lines part the entries; values can stand above or below the molecule they belong to. Positions of bridges follow the written chain, without caps; N, C: chain ends. Residues, ends and D or L forms follow the SMILES beside them.
How the values were obtained:
MDCK cell monolayers = settings: cited from earlier work
Description: Previously, cyclic cHAVc1 (cyclo(1,8)Ac-CSHAVASC-NH2) and cHAVc3 (cyclo(1,6)Ac-CSHAVC-NH2) were prepared and compared to a linear HAV4 (Ac-SHAVAS-NH2) in modulating the intercellular junctions in vitro and in vivo [19]. […] An alanine scanning study was carried out to evaluate the role of each amino acid in HAV6 peptide, and the biological activity of each alanine mutant peptide was evaluated in lowering the TEER values of MDCK cell monolayers. Mutation of the Ser1 to Ala1 residue reduced the junction modulatory activity of the HAV6 mutant; ...

brains of C57BL/6 mice = assay: In vivo brain delivery of IRdye800CW-IgG mAb (NIRF quantification); settings: n = 3; for amount of IgG mAb in the brain (brain deposition): IgG mAb 21.6 nmol/kg with or without 13 µmol/kg peptide, i.v. tail vein, 15 min circulation, PBS/0.5% Tween-20 perfusion, NIRF (Odyssey CLx) of brain homogenate, mean ± SEM; for brain delivery of IgG mAb compared to control (IgG mAb alone), in words: IgG mAb 21.6 nmol/kg, peptide 13 µmol/kg i.v., ANOVA Student–Newman–Keuls
Description: The activity of each peptide in enhancing BBB penetration was evaluated by delivering IRdye800CW donkey anti-goat IgG mAb in C57BL/6 mice; the amounts of mAb in the brain were determined using near infrared fluorescence (NIRF) imaging. Each group contains 3 mice per group (n = 3) with a mixture of male and female mice, selected randomly for each arm of the study. The injection solution was prepared by adding 600 µL PBS into 0.5 mg lyophilized IgG mAb; then, approximately 1.5 mg lyophilized peptide was added into the mixture yielding the injectable formulation. A 100 µL solution of a mixture containing IgG mAb (21.6 nmol/kg) along with 13 µmol/kg peptide was administered via tail vein. As a control, 100 µL of IgG mAb alone was administered via i.v. route. After the delivered molecules had been circulating for 15 min, the mice were sacrificed; then, a mixture of PBS with 0.5% Tween-20 was administered for cardiac perfusion to remove the blood and delivered molecules from the brain microvessels. The brain and other organs such as lung, heart, spleen, liver, and kidney were harvested and rinsed with PBS. The isolated organs were scanned with Odyssey® CLx for mAb quantification.
The brain deposition of IgG mAb was also quantified by NIRF imaging in brain homogenates. The isolated brains were mechanically homogenized in 2.0 mL of PBS. To make the standard solutions, IRDye800CW IgG mAb stock solution (70 µg/mL) was prepared; it was then diluted with various amounts of PBS to make six different mAb concentrations. To generate a calibration curve, the brain homogenate (200 µL) was aliquoted out to a 96-well plate. A total of 10 µL of each concentration of IgG mAb was added to three different wells of blank brain homogenates. The standard spiked homogenates were at a range of 10–200 ng/mL IgG mAb in brain homogenate. The wells were scanned using the Odyssey® CLx scanner, and the signal intensities vs. concentrations of mAb per gram of brain were used to generate a calibration curve.
ANOVA with Student–Newman–Keuls was used to compare the data for determining statistical significance for IgG mAb deposition in the brains. A p-value of less than 0.05 was used as a criterion for a significant difference in data comparison. Numeric results are presented as: mean ± SEM.
A calibration curve was generated to determine the amount of IgG mAb in the brain by spiking blank brain homogenates with a concentration range from 10 to 200 ng/mL, and good linearity with R^2 ≥ 0.98 was achieved. […] The average amounts of IgG mAb in the brains of HAV6-treated and control animals were 3.4 ± 0.4 and 4.0 ± 0.5 pmol/g brain, respectively. In contrast, the average amounts of mAb in the brains of cyclic HAVN1- and HAVN2-treated mice were 8.6 ± 0.5 and 8.8 ± 0.6 pmol/g brain, respectively. The BBB modulatory activities of ADTC5, linear ADTHAV, and cyclic ADTHAV were also compared to the control (Figure 5). […] The average brain deposition of IgG mAb were 11.8 ± 0.5, 15.7 ± 0.8, and 13.3 ± 0.7 pmol/g brain for linear ADTHAV, cyclic ADTHAV, and ADTC5, respectively.

EC1 domain of E-cadherin [1] = target: T1, EC1 domain of E-cadherin (Homo sapiens, UniProt P12830); assay: SPR binding to immobilized EC1 domain of E-cadherin; settings: authors' separate study; for Kd: EC1 immobilized on streptavidin chip via Streptag I at N-terminus
T1 sequence (P12830 155-262 limits assumed): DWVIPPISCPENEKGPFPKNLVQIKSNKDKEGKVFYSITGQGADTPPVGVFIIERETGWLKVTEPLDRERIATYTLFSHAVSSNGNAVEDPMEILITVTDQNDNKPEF
Description: However, it was not yet clear whether the difference in activity was due to additive activity by the two sequences (Thr-Pro-Pro-Val and Ser-His-Ala-Val) or domination by only one sequence. As mentioned above, there was a trend that cyclic ADTHAV was slightly better than ADTC5. Because it is difficult to differentiate the activities of cyclic ADTHAV and ADTC5 in vivo, we compared their binding properties to the EC1 domain of E-cadherin using SPR experiments in a separate study. After optimizing the SPR running conditions, the EC1 protein was immobilized on the streptavidin chip via the Streptag I sequence on the N-terminus of the EC1 domain followed by injection of various peptide concentrations. […] In the future, the mechanism of cyclic ADTHAV binding to the EC1-domains of E-cadherin and VE-cadherin will be evaluated.

EC1 domain of E-cadherin [2] = assay: SPR; EC1 protein immobilised on a streptavidin chip via the Streptag I sequence on its N-terminus; various peptide concentrations injected

Molecule: cyclo(1,8)Ac-CSHAVASC-NH2 (disulfide) [cHAVc1, earlier cyclic HAV peptide]
- junction modulatory activity in MDCK cell monolayers, in words (MDCK cell monolayers; compared to HAV4 (and cHAVc1), ref [19]): same junction modulatory activity as HAV4 peptide

- Kd (EC1 domain of E-cadherin [1]): 0.114 µM
- binding affinity to EC1 domain of E-cadherin vs ADTC5, in words (EC1 domain of E-cadherin [1]): higher binding affinity
Molecule: CC(C)[C@@H]1NC(=O)[C@H](C)NC(=O)[C@H](Cc2c[nH]cn2)NC(=O)[C@H](CO)NC(=O)[C@H](C(C)C)NC(=O)[C@@H]2CCCN2C(=O)[C@@H]2CCCN2C(=O)[C@H]([C@@H](C)O)NC1=O [cyclic ADTHAV, Cyclo(1,8)TPPVSHAV] (cyclo(TPPVSHAV))
- BBB modulatory activity to deliver IgG mAb compared to cyclic HAVN2, in words (brains of C57BL/6 mice; 13 µmol/kg peptide, 15 min): significantly better than that of cyclic HAVN2
- amount of IgG mAb in the brain (brain deposition) (brains of C57BL/6 mice): 15.7 ± 0.8 pmol/g brain
- brain delivery of IgG mAb compared to control (IgG mAb alone), in words (brains of C57BL/6 mice; 15 min): significantly better than in the PBS control
- binding affinity to EC1 domain of E-cadherin vs ADTC5, in words (EC1 domain of E-cadherin [1]; listed as Cyclic ADTHAV): better binding affinity to the EC1 domain of E-cadherin than does ADTC5

Molecule: Cyclo(1,6)SHAVSS (head to tail) [HAVN1, N-to-C-termini cyclo-hexapeptide derived from HAV6]
- BBB modulatory activity / IgG mAb brain delivery compared to HAV6, in words (brains of C57BL/6 mice; 13 µmol/kg peptide, 15 min): significantly enhanced; also recorded: improvement in the BBB modulatory activity; also recorded: better BBB modulatory effects than their linear counterpart, HAV6
- amount of IgG mAb in the brain (brain deposition) (brains of C57BL/6 mice): 8.6 ± 0.5 pmol/g brain
- brain delivery of IgG mAb compared to control (IgG mAb alone), in words (brains of C57BL/6 mice; 15 min): significantly enhanced

Molecule: Cyclo(1,5)SHAVS (head to tail) [HAVN2, N-to-C-termini cyclo-pentapeptide derived from HAV6]
- BBB modulatory activity / IgG mAb brain delivery compared to HAV6, in words (brains of C57BL/6 mice; 13 µmol/kg peptide, 15 min): significantly enhanced; also recorded: improvement in the BBB modulatory activity; also recorded: better BBB modulatory effects than their linear counterpart, HAV6
- BBB modulatory activity compared to HAVN1, in words (brains of C57BL/6 mice; 13 µmol/kg peptide, 15 min): removal of one serine residue did not influence the BBB modulatory activity of HAVN2 compared to HAVN1
- amount of IgG mAb in the brain (brain deposition) (brains of C57BL/6 mice): 8.8 ± 0.6 pmol/g brain
- brain delivery of IgG mAb compared to control (IgG mAb alone), in words (brains of C57BL/6 mice; 15 min): significantly enhanced

Molecule: Ac-TPPVSHAV-NH2 [linear ADTHAV]
- amount of IgG mAb in the brain (brain deposition) (brains of C57BL/6 mice): 11.8 ± 0.5 pmol/g brain
- brain delivery of IgG mAb compared to control (IgG mAb alone), in words (brains of C57BL/6 mice; 15 min): significantly better than in the PBS control

- Kd (EC1 domain of E-cadherin [1]): 26.8 µM
Molecule: CC(=O)N[C@H]1CSSC[C@@H](C(N)=O)NC(=O)[C@H](C(C)C)NC(=O)[C@@H]2CCCN2C(=O)[C@@H]2CCCN2C(=O)[C@H]([C@@H](C)O)NC(=O)[C@H](CC(=O)O)NC1=O [ADTC5, Cyclo(1,7)Ac-CDTPPVC-NH2] (Ac-CDTPPVC-NH2; disulfide 1-7)

Molecule: Ac-SHAVAS-NH2 [HAV4, earlier linear HAV peptide]
- junction modulatory activity of HAV6 analogues (alanine scan), in words (MDCK cell monolayers; lowering TEER of MDCK cell monolayers, ref [34]): enhanced modulatory activity of the peptide compared to HAV6

- Kd (EC1 domain of E-cadherin [2]): 26.8 µM
B1: Cyclic ADTC5 (peptide)
peptide: Ac-CDTPPVC-NH2
modifications: disulfide 1-7
SMILES: CC(=O)N[C@H]1CSSC[C@@H](C(N)=O)NC(=O)[C@H](C(C)C)NC(=O)[C@@H]2CCCN2C(=O)[C@@H]2CCCN2C(=O)[C@H]([C@@H](C)O)NC(=O)[C@H](CC(=O)O)NC1=O

- Kd (EC1 domain of E-cadherin [2]): 0.114 µM
Molecule: TPPVSHAV (cyclo(1,8): N-to-C terminal peptide bond) [Cyclic ADTHAV]

Reference: PMC6920923, “Improving In Vivo Brain Delivery of Monoclonal Antibody Using Novel Cyclic Peptides” (Pharmaceutics, 2019)
